Measurements: patent publication US20210070748A1, “INHIBITORS OF BRUTONS TYROSINE KINASE” (Pharmacyclics LLC, priority 2015, published 2021)

What was measured:
[1] = biological target: T1, ITK (Homo sapiens, UniProt Q08881); test: Inhibition of a panel of kinases, in vitro HotSpot kinase assay: ITK; format: biochemical; conditions: D-compounds panel data; 1 μM ATP
T1 sequence (Q08881 1-620): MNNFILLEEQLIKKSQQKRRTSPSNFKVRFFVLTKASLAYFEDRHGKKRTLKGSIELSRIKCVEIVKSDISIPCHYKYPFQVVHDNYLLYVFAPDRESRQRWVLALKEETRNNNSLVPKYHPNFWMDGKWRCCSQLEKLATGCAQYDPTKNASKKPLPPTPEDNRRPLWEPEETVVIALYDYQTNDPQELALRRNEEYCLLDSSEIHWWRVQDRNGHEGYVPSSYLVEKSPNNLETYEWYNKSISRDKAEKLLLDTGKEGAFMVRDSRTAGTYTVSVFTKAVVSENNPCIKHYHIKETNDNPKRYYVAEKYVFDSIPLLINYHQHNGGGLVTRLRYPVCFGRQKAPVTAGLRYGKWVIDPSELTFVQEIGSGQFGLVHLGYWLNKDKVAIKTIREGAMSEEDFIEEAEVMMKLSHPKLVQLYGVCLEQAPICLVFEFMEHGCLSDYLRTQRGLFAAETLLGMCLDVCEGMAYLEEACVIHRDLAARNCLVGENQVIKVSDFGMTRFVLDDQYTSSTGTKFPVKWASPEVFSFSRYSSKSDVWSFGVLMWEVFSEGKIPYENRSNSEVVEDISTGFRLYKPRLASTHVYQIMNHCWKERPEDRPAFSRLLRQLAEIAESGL
Experimental: (§1) The degree of inhibition of a panel of kinases is determined using the in vitro HotSpot kinase assay (purified enzymes, ^33P-ATP, an appropriate substrate and 1 μM ATP).

[2] = biological target: T2, TEC (Homo sapiens, UniProt P42680); test: Inhibition of a panel of kinases, in vitro HotSpot kinase assay: TEC; format: biochemical; conditions: D-compounds panel data; 1 μM ATP
T2 sequence (P42680 1-631): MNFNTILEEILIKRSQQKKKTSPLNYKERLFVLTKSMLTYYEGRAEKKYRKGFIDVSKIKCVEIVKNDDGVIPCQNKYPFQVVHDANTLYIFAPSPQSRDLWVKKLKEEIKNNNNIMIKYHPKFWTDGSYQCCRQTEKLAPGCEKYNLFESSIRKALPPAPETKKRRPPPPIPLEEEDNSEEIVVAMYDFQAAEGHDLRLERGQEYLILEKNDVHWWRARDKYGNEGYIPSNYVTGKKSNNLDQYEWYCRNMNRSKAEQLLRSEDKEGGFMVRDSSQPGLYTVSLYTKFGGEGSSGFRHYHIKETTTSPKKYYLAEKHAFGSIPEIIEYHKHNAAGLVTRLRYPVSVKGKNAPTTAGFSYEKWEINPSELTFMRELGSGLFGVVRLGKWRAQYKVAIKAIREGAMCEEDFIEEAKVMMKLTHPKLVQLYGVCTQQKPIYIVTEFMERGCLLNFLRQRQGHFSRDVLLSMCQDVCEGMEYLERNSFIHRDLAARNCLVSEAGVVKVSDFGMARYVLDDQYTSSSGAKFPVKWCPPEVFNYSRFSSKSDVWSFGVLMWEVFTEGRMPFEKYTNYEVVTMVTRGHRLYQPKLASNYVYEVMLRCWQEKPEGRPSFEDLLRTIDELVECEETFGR
Experimental: as §1

## C[C@H]1CC[C@@H](NC(=O)N(C)C)CN1c1cnc(C(N)=O)c(Nc2cnn(C)c2)n1 [Example D-152, 5-[(2S,5R)-5-[(dimethylcarbamoyl)amino]-2-methylpiperidin-1-yl]-3-[(1-methyl-1H-pyrazol-4-yl)amino]pyrazine-2-carboxamide]
[1]
  IC50: 1000 to 10000 nM
[2]
  IC50: 10 to 100 nM

## C[C@@H]1[C@H](NC(=O)c2ccc(C3CC3)cc2F)CCCN1c1cnc(C(N)=O)c(Nc2ccc(N3CCN(C)CC3=O)cc2)n1 [Example D-10, 5-[(2R,3R)-3-(4-cyclopropyl-2-fluorobenzamido)-2-methylpiperidin-1-yl]-3-{[4-(4-methyl-2-oxopiperazin-1-yl)phenyl]amino}pyrazine-2-carboxamide]
[1]
  IC50: 100 to 1000 nM
[2]
  IC50: 10 to 100 nM

## C[C@@H]1[C@H](NC(=O)N(C)C)CCCN1c1cnc(C(N)=O)c(Nc2cc(C3CCOCC3)ns2)n1 [Example D-162, 5-[(2R,3R)-3-[(dimethylcarbamoyl)amino]-2-methylpiperidin-1-yl]-3-{[3-(oxan-4-yl)-1,2-thiazol-5-yl]amino}pyrazine-2-carboxamide]
[1]
  IC50: 100 to 1000 nM
[2]
  IC50: ≤ 10 nM

## C[C@@H]1[C@H](NC(=O)c2ccc(C3CC3)cc2F)CCCN1c1cnc(C(N)=O)c(Nc2ccc(S(=O)(=O)N3CCN(C)CC3)cc2)n1 [Example D-130, 5-[(2R,3R)-3-(4-cyclopropyl-2-fluorobenzamido)-2-methylpiperidin-1-yl]-3-({4-[(4-methylpiperazin-1-yl)sulfonyl]phenyl}amino)pyrazine-2-carboxamide]
[1]
  IC50: 100 to 1000 nM
[2]
  IC50: 100 to 1000 nM

## C[C@@H]1[C@H](NC(=O)c2ccc(C3CC3)cc2)CCCN1c1cnc(C(N)=O)c(Nc2ccc(N3CCC(F)(F)CC3)cc2)n1 [Example D-96, 5-[(2R,3R)-3-(4-cyclopropylbenzamido)-2-methylpiperidin-1-yl]-3-{[4-(4,4-difluoropiperidin-1-yl)phenyl]amino}pyrazine-2-carboxamide]
[1]
  IC50: > 10000 nM
[2]
  IC50: 10 to 100 nM

## C[C@@H]1[C@H](NC(=O)c2ccc(C3CC3)cc2F)CCCN1c1cnc(C(N)=O)c(Nc2cnn(C)c2)c1 [Example D-117, 5-[(2R,3R)-3-(4-cyclopropyl-2-fluorobenzamido)-2-methylpiperidin-1-yl]-3-[(1-methyl-1H-pyrazol-4-yl)amino]pyridine-2-carboxamide]
[1]
  IC50: 1000 to 10000 nM
[2]
  IC50: 100 to 1000 nM

## C[C@@H]1[C@H](NC(=O)c2ccc(C3CC3)cc2)CCCN1c1cnc(C(N)=O)c(Nc2ccc(N3CCN(CC(F)(F)F)CC3)cc2)n1 [Example D-97, 5-[(2R,3R)-3-(4-cyclopropylbenzamido)-2-methylpiperidin-1-yl]-3-({4-[4-(2,2,2-trifluoroethyl)piperazin-1-yl]phenyl}amino)pyrazine-2-carboxamide]
[1]
  IC50: 1000 to 10000 nM
[2]
  IC50: 10 to 100 nM

## Cc1cc(Nc2nc(N3CCCC(c4ncc(-c5ccccc5)[nH]4)C3)cnc2C(N)=O)sn1 [Example D-164, 3-[(3-methyl-1,2-thiazol-5-yl)amino]-5-[3-(4-phenyl-3H-imidazol-2-yl)piperidin-1-yl]pyrazine-2-carboxamide]
[1]
  IC50: 1000 to 10000 nM
[2]
  IC50: 100 to 1000 nM

## C[C@H]1CC[C@@H](NC(=O)c2ccc(C3CC3)cc2)CN1c1cnc(C(N)=O)c(Nc2ccc(N3CCN(C)CC3)cc2)n1 [Example D-154, 5-[(2S,5R)-5-(4-cyclopropylbenzamido)-2-methylpiperidin-1-yl]-3-{[4-(4-methylpiperazin-1-yl)phenyl]amino}pyrazine-2-carboxamide]
[1]
  IC50: 1000 to 10000 nM
[2]
  IC50: 100 to 1000 nM

## CC(=O)NC(C)(C)c1ccc(C(=O)N[C@@H]2CCCN(c3cnc(C(N)=O)c(Nc4cnn(C)c4)n3)[C@@H]2C)cc1 [Example D-107, 5-[(2R,3R)-3-[4-(2-acetamidopropan-2-yl)benzamido]-2-methylpiperidin-1-yl]-3-[(1-methyl-1H-pyrazol-4-yl)amino]pyrazine-2-carboxamide]
[1]
  IC50: 100 to 1000 nM
[2]
  IC50: ≤ 10 nM

## Cc1cc(Nc2nc(N3CCC[C@@H](NC(=O)c4ccc(C(C)(C)O)cc4)[C@H]3C)cnc2C(N)=O)sn1 [Example D-159, 5-[(2R,3R)-3-[4-(2-hydroxypropan-2-yl)benzamido]-2-methylpiperidin-1-yl]-3-[(3-methyl-1,2-thiazol-5-yl)amino]pyrazine-2-carboxamide]
[1]
  IC50: 100 to 1000 nM
[2]
  IC50: ≤ 10 nM

## Cc1ccc(-c2cnc([C@H]3CCCN(c4cnc(C(N)=O)c(Nc5cc(C)ns5)n4)C3)[nH]2)cc1 [Example D-136, 3-[(3-methyl-1,2-thiazol-5-yl)amino]-5-[(3S)-3-[5-(4-methylphenyl)-1H-imidazol-2-yl]piperidin-1-yl]pyrazine-2-carboxamide]
[1]
  IC50: 1000 to 10000 nM
[2]
  IC50: 100 to 1000 nM

## C[C@@H]1[C@H](NC(=O)N(C)C)CCCN1c1cnc(C(N)=O)c(Nc2ccc(OC3CCN(C4CCCC4)CC3)cc2)n1 [Example D-102, 3-({4-[(1-cyclopentylpiperidin-4-yl)oxy]phenyl}amino)-5-[(2R,3R)-3-[(dimethylcarbamoyl)amino]-2-methylpiperidin-1-yl]pyrazine-2-carboxamide]
[1]
  IC50: 10 to 100 nM
[2]
  IC50: 10 to 100 nM

## Cn1cc(Nc2nc(N3CCCC4(C3)CN(c3ccc(C5CC5)cc3)C(=O)O4)cnc2C(N)=O)cn1 [Example D-147, 5-[3-(4-cyclopropylphenyl)-2-oxo-1-oxa-3,7-diazaspiro[4.5]decan-7-yl]-3-[(1-methyl-1H-pyrazol-4-yl)amino]pyrazine-2-carboxamide]
[1]
  IC50: > 10000 nM
[2]
  IC50: 100 to 1000 nM

## Cc1cc(Nc2nc(N3CCC[C@@H](NC(=O)c4ccc(C(C)(C)O)cc4)C3)cnc2C(N)=O)sn1 [Example D-158, 5-[(3R)-3-[4-(2-hydroxypropan-2-yl)benzamido]piperidin-1-yl]-3-[(3-methyl-1,2-thiazol-5-yl)amino]pyrazine-2-carboxamide]
[1]
  IC50: 100 to 1000 nM
[2]
  IC50: 10 to 100 nM

## C[C@@H]1[C@H](NC(=O)N(C)C)CCCN1c1cnc(C(N)=O)c(Nc2ccc(N3CCN(C)CC3)cc2)n1 [Example D-111, 5-[(2R,3R)-3-[(dimethylcarbamoyl)amino]-2-methylpiperidin-1-yl]-3-{[4-(4-methylpiperazin-1-yl)phenyl]amino}pyrazine-2-carboxamide]
[1]
  IC50: 100 to 1000 nM
[2]
  IC50: 100 to 1000 nM

## C[C@@H]1[C@H](NC(=O)N(C)C)CCCN1c1cnc(C(N)=O)c(Nc2ccc(N3CCN(C)CC3)cc2)c1 [Example D-127, 5-[(2R,3R)-3-[(dimethylcarbamoyl)amino]-2-methylpiperidin-1-yl]-3-{[4-(4-methylpiperazin-1-yl)phenyl]amino}pyridine-2-carboxamide]
[1]
  IC50: 1000 to 10000 nM
[2]
  IC50: 1000 to 10000 nM

## C[C@H]1CC[C@@H](NC(=O)c2ccc(C(C)(C)O)cc2)CN1c1nnc(C(N)=O)c(Nc2cnn(C)c2)n1 [Example D-157, 3-[(2S,5R)-5-[4-(2-hydroxypropan-2-yl)benzamido]-2-methylpiperidin-1-yl]-5-[(1-methyl-1H-pyrazol-4-yl)amino]-1,2,4-triazine-6-carboxamide]
[1]
  IC50: 10 to 100 nM
[2]
  IC50: ≤ 10 nM

## Cc1ccc(-c2cnc([C@@H]3CCCN(c4cnc(C(N)=O)c(Nc5cc(C)ns5)n4)[C@@H]3C)[nH]2)cc1 [Example D-131, 3-[(3-methyl-1,2-thiazol-5-yl)amino]-5-[(2R,3R)-2-methyl-3-[5-(4-methylphenyl)-1H-imidazol-2-yl]piperidin-1-yl]pyrazine-2-carboxamide]
[1]
  IC50: 1000 to 10000 nM
[2]
  IC50: 100 to 1000 nM

## Cc1ccc(-c2cnc([C@@H]3CCCN(c4cnc(C(N)=O)c(Nc5cc(C)ns5)n4)C3)[nH]2)cc1 [Example D-137, 3-[(3-methyl-1,2-thiazol-5-yl)amino]-5-[(3R)-3-[5-(4-methylphenyl)-1H-imidazol-2-yl]piperidin-1-yl]pyrazine-2-carboxamide]
[1]
  IC50: > 10000 nM
[2]
  IC50: 1000 to 10000 nM

## CC(C)n1cc(Nc2nc(N3CCC[C@@H](NC(=O)c4ccc(C5CC5)cc4F)[C@H]3C)cnc2C(N)=O)cn1 [Example D-123, 5-[(2R,3R)-3-(4-cyclopropyl-2-fluorobenzamido)-2-methylpiperidin-1-yl]-3-{[1-(propan-2-yl)-1H-pyrazol-4-yl]amino}pyrazine-2-carboxamide]
[1]
  IC50: 100 to 1000 nM
[2]
  IC50: 10 to 100 nM
